SMILES strings stand for the structures. Where a name gives a salt, the structure may show the parent alone. Where only a bound is given, the exact number is not on record here.

For series [1] the following is noted: cited from earlier work.
A short description of series [2]: Skin permeation of ibuprofen through porcine skin, Franz diffusion cells (finite dosing). The format is in vitro ADME. As to conditions: bar graphs FIG. 1-13. As to the method:
“Enhancement ratio” (“ER”) as used herein is the ratio of a test result (e.g., ug/cm^2 accumulated dose of product) from a formulation comprising ibuprofen to the corresponding test result from a control composition comprising ibuprofen at the same concentration in the formulation.
“Ratio”, as it pertains to comparative flux values described herein, are calculated based on the cumulative amount of active (e.g. ibuprofen) delivered through the skin over a period of 4-60 hrs, preferably 24 hrs.
The permeation of ibuprofen through porcine skin from each of the present formulations was measured using Franz diffusion cells (“FDC”s). Porcine skin pieces are obtained from Lampire Biological Laboratories, Inc., Pipersville, Pa. Porcine skins were collected immediately following animal sacrifice, and the hairs were trimmed with clippers. Larger pieces of excess fat were removed with a filet knife. The skin was then trimmed to a set thickness of some 2 mm, cut into individual pieces, wrapped in aluminum foil, frozen, shipped, and stored at −78° C.
Prior to use, the skin pieces were allowed to thaw, in air, to room temperature. […]
Samples were drawn from the receptor wells at various times, as provided in the examples that follow. […] The concentrations of ibuprofen in the samples were measured using HPLC analysis using a C18 column and acetonitrile and water as the mobile phase. […]

A short description of a further series: pH of the formulation. It counts as physicochemical. As to conditions: Table 20; single ingredient in water at its Ib949 wt %.

Turning to `CC(C)Cc1ccc(C(C)C(=O)O)cc1` (racemic) [Ibuprofen, 2-(4-isobutylphenyl)propanoic acid], the “Solubility in polar organic solvents” value in series [1] (ethanol and acetone) is reported as “readily soluble”. The Solubility in water in series [1] (water) is less than 100 µg/mL. For `CC(C)Cc1ccc([C@H](C)C(=O)O)cc1` [(S) form, (S+)-ibuprofen], the “Flux / permeation of ibuprofen, result in words” value in series [2] is recorded as “no significant difference in flux”. Turning to `CCO` [Ethanol], the pH-water and ingredients in the series “pH of the formulation” is listed as 7.31. On the same count and under the same terms, the result for `CC(O)C(=O)O` (centres unmarked) [Lactic Acid] reads 2.4; that for `COC(=O)c1ccc(O)cc1` [MP], 5.72; that for `CCCCCCCCCCCCOS(=O)(=O)[O-].[Na+]` [Na Lauryl Sulfate], 7.97. Same read-out and setting: for `CC(O)CO` (centres unmarked) [PG] the value was 6.97; for `CCCOC(=O)c1ccc(O)cc1` [PP], 6.13; for `CCOCCOCCO` [Transcutol], 4.32.

Take `CCOC(=O)CC(O)(CC(=O)OCC)C(=O)OCC` [Triethyl Citrate]: in the series “pH of the formulation”, the pH-water and ingredients turned out to be 3.72.

These data come from patent US8470886B2, “Topical ibuprofen formulations” (NUVO Research Inc., priority 2009, dated 2013).
